Drawing on patent US12502362B2, “Inhibitors of nucleotidyltransferase superfamily enzymes as antibiotics” (priority 2017, dated 2025), this text covers Antibiotic susceptibility for five molecules.

Format in all cases: cell-based
For assay [1], the system named is Enterobacter cloacae complex. Put plainly: Antibiotic susceptibility of Enterobacter cloacae complex strain. The note with it: Ecc1 (Enterobacter cloacae complex). An excerpt:
(§1) All these MDR-bacteria are at least resistant to two classes of the antibiotics among five groups and/or specific antibiotics including quinolones/fluorquinolones, carbapenems, cephalosporins, aminoglycosides and piperacillin-tazobactam.

A further assay relates to Klebsiella pneumonia. Description: Antibiotic susceptibility of Klebsiella pneumonia strains.
From the text: as §1

The test system of another assay is MDR E. coli.
From the text: as §1

The subject of the next assay is Citrobacter koseri. Description: Antibiotic susceptibility of Citrobacter koseri strain. The note with it: Ck1 (Citrobacter koseri).
From the text: as §1

The next assay deals with Morganella morganii. Description: Antibiotic susceptibility of Morganella morganii strain. To be noted: Mm1 (Morganella morganii).
From the text: as §1

In assay [2] the test system is MDR Acinetobacter baumannii.
From the text: as §1

Like-named read-outs stand apart in the source and are kept apart here.

Take `C[C@@H](O)[C@H]1C(=O)N2C(C(=O)O)=C(S[C@@H]3CN[C@H](C(=O)Nc4cccc(C(=O)O)c4)C3)[C@H](C)[C@H]12` [ETP, Ertapenem]: the Antibiotic susceptibility entry (in assay [1]; with Klebsiella pneumonia (Kp1 (Klebsiella pneumonia)); with Klebsiella pneumonia (Kp6 (Klebsiella pneumonia)); with MDR E. coli (Ec1 (E. coli)); with MDR E. coli (Ec2 (E. coli)); with MDR E. coli (Ec3 (E. coli))) was “S” in each case. For the same molecule, the Antibiotic susceptibility entry in the assay on MDR E. coli (Ec4 (E. coli)), in the assay with MDR E. coli (Ec5 (E. coli)), in the assay with Citrobacter koseri and with Morganella morganii was “S” in each case.

For the molecule `NC[C@H]1O[C@H](O[C@H]2[C@H](O)[C@@H](O[C@H]3O[C@H](CO)[C@@H](O)[C@H](N)[C@H]3O)[C@H](N)C[C@@H]2N)[C@H](N)C[C@@H]1O` [TOB, Tobramycin], the Antibiotic susceptibility entry in assay [1] is “S”; with Klebsiella pneumonia (Kp1 (Klebsiella pneumonia)) it was “S”; in the assay on Klebsiella pneumonia (Kp6 (Klebsiella pneumonia)), “R”; in the assay with MDR E. coli (Ec1 (E. coli)), “I”; in the assay with MDR E. coli (Ec2 (E. coli)), “I”; with MDR E. coli (Ec3 (E. coli)) it was “I”. Moreover, the Antibiotic susceptibility entry in the assay with MDR E. coli (Ec4 (E. coli)) was “R”; in the assay with MDR E. coli (Ec5 (E. coli)), “R”; in assay [2] (Ab1 (Acinetobacter baumannii)), “S”; in assay [2] (Ab2 (Acinetobacter baumannii)), “S”; in assay [2] (Ab3 (Acinetobacter baumannii)), “S”; in assay [2] (Ab4 (Acinetobacter baumannii)) it was “S”. Besides, the Antibiotic susceptibility result (in assay [2] (Ab5 (Acinetobacter baumannii)); in the assay with Citrobacter koseri; in the assay on Morganella morganii) was “I” throughout.

On to `CC(C)(O/N=C(\C(=O)N[C@@H]1C(=O)N2C(C(=O)[O-])=C(C[n+]3ccccc3)CS[C@H]12)c1csc(N)n1)C(=O)O` [CAZ, Ceftazidime], for which the Antibiotic susceptibility result (in assay [1]; in the assay with Klebsiella pneumonia (Kp1 (Klebsiella pneumonia)); in the assay with Klebsiella pneumonia (Kp6 (Klebsiella pneumonia)); in the assay on MDR E. coli (Ec1 (E. coli)); in the assay with MDR E. coli (Ec2 (E. coli)); in the assay on MDR E. coli (Ec3 (E. coli))) was “R” each time. In addition, the Antibiotic susceptibility result (with MDR E. coli (Ec4 (E. coli)); with MDR E. coli (Ec5 (E. coli)); in assay [2] (Ab1 (Acinetobacter baumannii)); in assay [2] (Ab2 (Acinetobacter baumannii)); in assay [2] (Ab3 (Acinetobacter baumannii)); in assay [2] (Ab4 (Acinetobacter baumannii))) was “R” each time. Besides, the Antibiotic susceptibility entry (in assay [2] (Ab5 (Acinetobacter baumannii)); with Citrobacter koseri; in the assay on Morganella morganii) was “R” in each case.

Regarding `Cc1nnc(SCC2=C(C(=O)O)N3C(=O)[C@@H](NC(=O)Cn4cnnn4)[C@H]3SC2)s1` [CFZ, Cefazolin], the Antibiotic susceptibility entry in the assay with Klebsiella pneumonia (Kp1 (Klebsiella pneumonia)), in the assay with Klebsiella pneumonia (Kp6 (Klebsiella pneumonia)), in the assay on MDR E. coli (Ec1 (E. coli)), in the assay with MDR E. coli (Ec2 (E. coli)), with MDR E. coli (Ec3 (E. coli)) and in the assay with MDR E. coli (Ec4 (E. coli)) was “R” in each case. Moreover, the Antibiotic susceptibility entry (in the assay on MDR E. coli (Ec5 (E. coli)); in assay [2] (Ab1 (Acinetobacter baumannii)); in assay [2] (Ab2 (Acinetobacter baumannii)); in assay [2] (Ab3 (Acinetobacter baumannii)); in assay [2] (Ab4 (Acinetobacter baumannii)); in assay [2] (Ab5 (Acinetobacter baumannii))) was “R” throughout. Besides, the Antibiotic susceptibility result in the assay with Citrobacter koseri and in the assay with Morganella morganii was “R” in each case.

In the case of `C[C@@H](O)[C@H]1C(=O)N2C(C(=O)O)=C(S[C@@H]3CN[C@H](C(=O)N(C)C)C3)[C@H](C)[C@H]12` [MEM, Meropenem], the Antibiotic susceptibility result (in assay [1]; with Klebsiella pneumonia (Kp1 (Klebsiella pneumonia)); in the assay on MDR E. coli (Ec1 (E. coli)); with MDR E. coli (Ec2 (E. coli)); in the assay with MDR E. coli (Ec3 (E. coli)); in the assay on MDR E. coli (Ec4 (E. coli))) was “S” in each case. Moreover, the Antibiotic susceptibility entry in the assay on MDR E. coli (Ec5 (E. coli)) and with Citrobacter koseri was “S” each time.
